Data on one molecule can be found in patent US6518312B2, “Immune enhancement” (Active Biotech AB, priority 2000, dated 2003).

The test system of the test is transcription factor AP-1. Description: AP-1-driven luciferase reporter gene assay in transfected Jurkat T cells (Jurkat/AP-1rep). The settings on record: Jurkat/AP-1rep cells stimulated 5.5 h at 37° C. with phorbol myristate acetate and ionomycin; FIG. 1. In kind it is cell-based. The method, then: The compounds of formula (I) were assayed for AP-1 enhancement. The compounds of this invention were tested in assays for the modulation of stimulated activity of an AP-1-driven reporter gene in the Jurkat T cell line. The activation of this reporter gene results in luciferase production and the amounts of produced luciferase parallels the level of AP-1 activity. A high level of AP-1 activity is pivotal to e.g. high production of IL-2.
Cells from the Jurkat T cell line were transfected with an AP-1-driven luciferase gene reporter construct (Parra et al., 1997) together with a selection gene vector. Selected clones from the resulting stable AP-1 reporter gene transfectants were used in the assays for AP-1 transcription factor activity. These transfected Jurkat cells (Jurkat/AP-1rep) were grown in RPMI 1640 supplemented with glutamine, hepes, sodium pyruvate, gentamicin, 10% FCS and G418. To evaluate distinct compounds for their capacity to enhance the AP-1 activity, Jurkat/AP-1rep cells were stimulated for 5.5 h in the temperature of 37° C. with phorbol myristate acetate and ionomycin in the absence and presence of test compounds. The 96 well plates containing the cell cultures were then put on ice until harvested. […] AP-1 activity was measured as luminiscence produced by luciferase substrate, which was added to the wells in conjunction with measurement.

With `CCN(CC)C(C)CNC(=O)c1ccc(NC(=O)C(C)C)cc1OC` (stereo not shown) [Compound A, N-[(2-Diethylamino)propyl]-4-isobutyrylamino-2-methoxy-benzamide], the “enhancement of the AP-1 driven reporter gene activity (luciferase luminescence)” value is recorded as “enhance the activity of the AP-1 driven reporter in a dose dependent fashion down to μM concentrations”.
